How the values were obtained:
Endothelin-1 receptor [1] = target: T1, Endothelin-1 receptor (Rattus norvegicus, UniProt P26684); experiment: In vitro inhibitory potency for preventing ET-1 induced constriction of rat aortic rings (ETA receptor); type: functional; details: read-out: pA2 (converted)
T1 sequence (P26684 whole entry): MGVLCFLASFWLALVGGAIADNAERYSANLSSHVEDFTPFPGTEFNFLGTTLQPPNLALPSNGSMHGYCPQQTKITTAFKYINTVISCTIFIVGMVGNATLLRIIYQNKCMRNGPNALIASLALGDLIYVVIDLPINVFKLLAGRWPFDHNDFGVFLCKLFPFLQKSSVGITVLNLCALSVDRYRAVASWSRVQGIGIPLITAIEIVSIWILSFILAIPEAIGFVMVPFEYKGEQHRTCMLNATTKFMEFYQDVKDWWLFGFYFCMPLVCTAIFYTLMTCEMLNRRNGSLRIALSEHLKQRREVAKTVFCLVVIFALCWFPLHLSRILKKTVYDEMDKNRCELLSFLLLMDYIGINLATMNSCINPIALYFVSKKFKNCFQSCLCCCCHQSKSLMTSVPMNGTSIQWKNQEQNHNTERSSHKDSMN

Endothelin-1 receptor [2] = target: T2, Endothelin-1 receptor (Homo sapiens, UniProt P25101); experiment: Inhibitory concentration required against [125I]ET1 binding to membranes of CHO cells expressing human ETA receptor; type: cell membranes
T2 sequence (P25101 whole entry): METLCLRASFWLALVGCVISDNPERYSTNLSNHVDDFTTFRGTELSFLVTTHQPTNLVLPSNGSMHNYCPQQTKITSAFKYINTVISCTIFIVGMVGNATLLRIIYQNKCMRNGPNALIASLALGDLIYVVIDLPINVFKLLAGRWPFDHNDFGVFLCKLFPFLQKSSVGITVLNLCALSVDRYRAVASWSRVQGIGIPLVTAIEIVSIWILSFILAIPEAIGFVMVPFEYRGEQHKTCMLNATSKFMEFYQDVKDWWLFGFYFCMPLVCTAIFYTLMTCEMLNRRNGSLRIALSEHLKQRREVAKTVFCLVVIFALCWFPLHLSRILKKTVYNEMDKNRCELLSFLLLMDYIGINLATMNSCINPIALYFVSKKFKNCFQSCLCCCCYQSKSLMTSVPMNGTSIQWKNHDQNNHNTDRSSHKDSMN

[3] = target: T3, Endothelin receptor type B (Homo sapiens, UniProt P24530); experiment: Inhibitory concentration required against [125I]ET1 binding to membranes of CHO cells expressing human ETB receptor; type: cell membranes
T3 sequence (P24530 whole entry): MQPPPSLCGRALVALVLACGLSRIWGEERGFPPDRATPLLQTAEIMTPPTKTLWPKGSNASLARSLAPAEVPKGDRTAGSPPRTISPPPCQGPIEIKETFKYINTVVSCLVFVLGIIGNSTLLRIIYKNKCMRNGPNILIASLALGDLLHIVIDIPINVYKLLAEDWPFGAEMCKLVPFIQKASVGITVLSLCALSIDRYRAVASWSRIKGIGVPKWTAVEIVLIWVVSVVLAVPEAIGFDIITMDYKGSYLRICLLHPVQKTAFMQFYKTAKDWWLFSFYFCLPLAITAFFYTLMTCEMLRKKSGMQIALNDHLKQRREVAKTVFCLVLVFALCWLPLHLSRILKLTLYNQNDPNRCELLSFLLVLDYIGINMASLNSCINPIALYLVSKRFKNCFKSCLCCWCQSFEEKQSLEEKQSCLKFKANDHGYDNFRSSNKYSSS

[4] = target: T4, Endothelin receptor type B (Rattus norvegicus, UniProt P21451); experiment: In vitro inhibitory potency for preventing sarafotoxin S6c induced constriction of rat tracheal rings (ETB receptor); type: functional, tissue-based, Trachea; details: read-out: pA2 (converted)
T4 sequence (P21451 whole entry): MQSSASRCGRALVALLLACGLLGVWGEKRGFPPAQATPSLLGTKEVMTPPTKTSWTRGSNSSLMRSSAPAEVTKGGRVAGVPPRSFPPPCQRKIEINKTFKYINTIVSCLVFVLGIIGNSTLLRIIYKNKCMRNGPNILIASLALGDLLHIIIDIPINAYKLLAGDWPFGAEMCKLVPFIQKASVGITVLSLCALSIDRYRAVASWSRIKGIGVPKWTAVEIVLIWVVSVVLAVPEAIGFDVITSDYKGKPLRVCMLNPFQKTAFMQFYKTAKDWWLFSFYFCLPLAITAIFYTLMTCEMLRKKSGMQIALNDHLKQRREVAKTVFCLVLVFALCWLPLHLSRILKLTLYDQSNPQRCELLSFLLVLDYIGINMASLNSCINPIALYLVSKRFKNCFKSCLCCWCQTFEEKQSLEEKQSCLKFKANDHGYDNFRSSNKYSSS

Structure (SMILES) | IC50 (Endothelin-1 receptor [2]) | IC50 [3] | Kb (Endothelin-1 receptor [1]) | Kb [4]
CCCS(=O)(=O)NCCOc1nc(C2CC2)nc(NS(=O)(=O)c2ccc(C(C)C)cn2)c1Oc1ccccc1OC | 80 nM | 84 nM | 288 nM | 363 nM
COc1ccccc1Oc1c(NS(=O)(=O)c2ccc(C(C)(C)C)cc2)nc(-c2ncccn2)nc1OCCNS(=O)(=O)c1cccs1 | – | 16 nM | – | –
CCS(=O)(=O)NCCOc1nc(C2CC2)nc(NS(=O)(=O)c2ccc(C(C)C)cn2)c1Oc1ccccc1OC | 50 nM | 397 nM | 347 nM | 269 nM
CCCS(=O)(=O)NCCOc1nc(-c2cc(OC)c(OC)c(OC)c2)nc(NS(=O)(=O)c2ccc(C(C)C)cn2)c1Oc1ccccc1OC | – | 24 nM | 3160 nM | 33.1 nM
CCCS(=O)(=O)NCCCOc1nc(C2CC2)nc(NS(=O)(=O)c2ccc(C(C)C)cn2)c1Oc1ccccc1OC | – | – | 245 nM | 69.2 nM
CCS(=O)(=O)NCCCOc1nc(C2CC2)nc(NS(=O)(=O)c2ccc(C(C)C)cn2)c1Oc1ccccc1OC | – | – | 105 nM | 269 nM
COc1ccccc1Oc1c(NS(=O)(=O)c2ccc(C(C)(C)C)cc2)nc(-c2ncccn2)nc1OCCCNS(=O)(=O)c1cccs1 | 86 nM | 4 nM | – | –
COc1ccccc1Oc1c(NS(=O)(=O)c2ccc(C(C)C)cn2)nc(-c2cc(OC)c(OC)c(OC)c2)nc1OCCNS(=O)(=O)c1cccs1 | – | 7 nM | – | 38.9 nM
COc1ccccc1Oc1c(NS(=O)(=O)c2ccc(C(C)C)cn2)nc(C2CC2)nc1OCCCNS(=O)(=O)c1ccc(C)cc1 | – | 19 nM | 309 nM | 49 nM
COc1ccccc1Oc1c(NS(=O)(=O)c2ccc(C(C)C)cn2)nc(C2CC2)nc1OCCCNS(=O)(=O)c1cccs1 | – | 4 nM | 120 nM | 9.12 nM
COc1ccccc1Oc1c(NS(=O)(=O)c2ccc(C(C)C)cn2)nc(N2CCOCC2)nc1OCCCNS(=O)(=O)c1ccc(C)cc1 | 116 nM | 24 nM | 4790 nM | 107 nM
CCCS(=O)(=O)NCCOc1nc(N2CCOCC2)nc(NS(=O)(=O)c2ccc(C(C)C)cn2)c1Oc1ccccc1OC | – | – | 832 nM | 240 nM

Second part, led by results:

IC50 (Endothelin-1 receptor [2]) | IC50 [3] | Structure (SMILES) | Kb (Endothelin-1 receptor [1]) | Kb [4]
487 nM | 873 nM | CCS(=O)(=O)NCCOc1nc(-c2ncccn2)nc(NS(=O)(=O)c2ccc(C(C)(C)C)cc2)c1Oc1ccccc1OC | – | –
14 nM | 2 nM | COc1ccccc1Oc1c(NS(=O)(=O)c2ccc(C(C)(C)C)cc2)nc(C2CC2)nc1OCCCNS(=O)(=O)c1cccs1 | – | –
– | 4 nM | COc1ccccc1Oc1c(NS(=O)(=O)c2ccc(C(C)C)cn2)nc(-c2cc(OC)c(OC)c(OC)c2)nc1OCCNS(=O)(=O)c1ccc(C)cc1 | > 10000 nM | –
1850 nM | 8240 nM | COc1ccccc1Oc1c(NS(=O)(=O)c2ccc(C)cn2)nc(C2CC2)nc1OCCNS(=O)(=O)c1cccs1 | – | –
1320 nM | 4670 nM | CCCS(=O)(=O)NCCOc1nc(C2CC2)nc(NS(=O)(=O)c2ccc(C)cn2)c1Oc1ccccc1OC | – | –
2770 nM | 351 nM | COc1ccccc1Oc1c(NS(=O)(=O)c2ccc(C)cn2)nc(-c2cc(OC)c(OC)c(OC)c2)nc1OCCNS(=O)(=O)c1cccs1 | – | –
– | 1540 nM | COc1ccccc1Oc1c(NS(=O)(=O)c2ccc(C)cn2)nc(-c2ccncc2)nc1OCCNS(=O)(=O)c1ccc(C)cc1 | – | –
1590 nM | 101 nM | CCS(=O)(=O)NCCCOc1nc(-c2ncccn2)nc(NS(=O)(=O)c2ccc(C(C)(C)C)cc2)c1Oc1ccccc1OC | – | –
2840 nM | 3680 nM | COc1ccccc1Oc1c(NS(=O)(=O)c2ccc(C)cn2)nc(-c2ccncc2)nc1OCCNS(=O)(=O)c1cccs1 | – | –
1380 nM | 9 nM | COc1ccccc1Oc1c(NS(=O)(=O)c2ccc(C(C)C)cn2)nc(N2CCOCC2)nc1OCCNS(=O)(=O)c1ccc(C)cc1 | – | –
19 nM | 122 nM | CCS(=O)(=O)NCCOc1nc(N2CCOCC2)nc(NS(=O)(=O)c2ccc(C(C)C)cn2)c1Oc1ccccc1OC | – | –
582 nM | 5660 nM | CCS(=O)(=O)NCCOc1nc(C2CC2)nc(NS(=O)(=O)c2ccc(C)cn2)c1Oc1ccccc1OC | – | –
51 nM | 931 nM | CCCS(=O)(=O)NCCOc1nc(N2CCOCC2)nc(NS(=O)(=O)c2ccc(C)cn2)c1Oc1ccccc1OC | – | –
– | 2110 nM | COc1ccccc1Oc1c(NS(=O)(=O)c2ccc(C)cn2)nc(Cc2ccc3c(c2)OCO3)nc1OCCNS(=O)(=O)c1cccs1 | – | –
